The subject of assay [1] is BRAF mutant and CRAF kinases. To be noted: cited from earlier work.
Assay [2] deals with NRAS mutated melanoma. To be noted: cited from earlier work.
The test system of assay [3] is KRAS-mutant models. To be noted: several KRAS-mutant models, well-tolerated doses; cited from earlier work.
The subject of assay [4] is pan-RAS codon Q61/G13R mutant models (NSCLC, melanoma, PDAC, rhabdomyosarcomas). Conditions: independently of the mutated RAS gene and tissue origin.
In assay [5] the test system is NRAS mutated melanoma. The assay is classed as in vivo, human. To be noted: single agent, 10 patients, doses 400-1200 qd and 200-800 bid, data cut May 31, 2021. The source says: Clinical data further supports the pre-clinical findings.
Assay [6] relates to cell lines that contain a variety of mutations that activate MAPK signaling. Conditions: cited from earlier work.
Assay [7] concerns solid tumors (salivary gland tumor and NSCLC) harboring pan-RAS codon Q61 or G13R mutations. The assay is classed as in vivo, human. Conditions: LXH254 single agent.
Assay [8] deals with KRAS G12, G13C and G13D mutant NSCLC. To be noted: single agent, second line; cited from earlier work.
For assay [9], the system named is advanced melanoma with NRAS mutation. To be noted: trametinib monotherapy, 7 patients with NRAS mutation; cited from earlier work.
Assay [10] relates to unresectable stage III/IV metastatic melanoma resistant to anti-PD (L)-1 therapy. To be noted: monotherapy, 162 patients, cited from earlier work.

As to `Cc1ccc2c(Nc3cccc(Cl)c3F)nccc2c1NC(=O)c1csc2c(N)ncnc12` [Belvarafenib, 4-amino-N-(1-((3-chloro-2-fluorophenyl)amino)-6-methylisoquinolin-5-yl) thieno[3,2-d]pyrimidine-7-carboxamide], the selectivity entry in [1] is recorded as “high selectivity”.
For the molecule `Cn1cnc2c(F)c(Nc3ccc(Br)cc3F)c(C(=O)NOCCO)cc21` [binimetinib], in assay [2] (402 patients, untreated (~79%) and previously treated with immunotherapy (~21%)), the ORR is recorded as 15%. Moreover, in assay [2] (402 patients), the mOS was 11 months and the mPFS is 2.8 months. Moreover, the anti-tumor activity entry in [2] (single agent MEK inhibitor, NEMO study) is “limited anti-tumor activity”.
As to `Cc1ccc(NC(=O)c2ccnc(C(F)(F)F)c2)cc1-c1cc(OCCO)nc(N2CCOCC2)c1` [naporafenib, N-(3-(2-(2-hydroxyethoxy)-6-morpholino-pyridin-4-yl)-4-methylphenyl)-2-(trifluoromethyl) isonicotinamide], the “tumor response in vivo” value in [3] is recorded as “tumor regression”. Besides, the “activity in non-clinical models” value in [4] is reported as “consistent activity”. For the same molecule, in assay [5], the “SDs (stable disease)” value was 4 and the responses result was “no responses”. The anti-proliferative activity entry in assay [6] is listed as “demonstrated anti-proliferative activity”. In addition, the “response to single agent therapy” value in [7] was “exceptional responders”.
For the molecule `CC(=O)Nc1cccc(-n2c(=O)n(C3CC3)c(=O)c3c(Nc4ccc(I)cc4F)n(C)c(=O)c(C)c32)c1` [trametinib, N-(3-{3-cyclopropyl-5-[(2-fluoro-4-iodophenyl)amino]-6,8-dimethyl-2,4,7-trioxo-3,4,6,7-tetrahydropyrido[4,3-d]pyrimidin-1 (2H)-yl}phenyl) acetamide], the “superiority against standard of care docetaxel” value in assay [8] is given as “failed to demonstrate superiority”. In assay [9], the responses result is reported as “no responses”.
Turning to Ipilimumab: anti-CTLA-4 therapy, the “objective response rate (ORR)” value in assay [10] (irrespective of mutation status) is 13%. In addition, in assay [10], the “median overall survival (mOS)” value is 8.8 months and the “median progression free survival (PFS)” value is 2.6 months.
